# According to patent US20100297675A1, “SUBSTRATE AND METHOD FOR CULTURING BREAST CELLS” (priority 2008, published 2010):
# Assays:
# [1] = test system: MCF-7 malignant breast cells; experiment: MCF-7 malignant cells cultured on 2D TCT culture surface, treated with inhibitor, confocal fluorescence imaging; type: cell-based; details: MCF-7 on TCT 2D surface; 4 μM on alternate days for 15 days; E-cadherin/DAPI stain; FIGS. 11A-C
# Method: Differences in cellular morphology often contribute to differences in cellular function. To understand the difference of cellular functions between breast cells cultured in a porous substrate and on a 2D culture surface, 10,000 MCF-7 malignant cell were seeded and cultured in porous PDMS (as described in Example 1) and a TCT culture surface (tissue culture treated polystyrene, “TCT”, Coming Inc) under the same conditions. The cells were treated with 4 μM of PD98059 (MAPK inhibitor) and 4 μM of LY294002 (PI3K inhibitor) on alternate days for 15 days. […] In FIGS. 11A-C, the cells were stained for E-cadherin and counterstained with a DAPI nuclei stain. In FIG. 11A, untreated cells are shown at 14 days of culture. In FIG. 11B, cells treated with PD98059 are shown at 14 days of culture. In FIG. 11C, cells treated with LY294002 are shown at 14 days of culture. The green (E-cadherin) and blue (nuclei) stains cannot be seen in the black and white reproductions presented herein.
# [2] = test system: MCF-7 malignant breast cells; experiment: MCF-7 malignant cells cultured in porous PDMS substrate, treated with inhibitor, confocal fluorescence imaging; type: cell-based; details: MCF-7 in porous PDMS, 4 μM on alternate days for 15 days, F-actin/DAPI stain
# Excerpt: Porous polydimethylsiloxane (PDMS) substrates were generated by mixing a PDMS pre-polymer and a curing agent using the Sylgard 182 kit available from Dow Corning in a ratio of 10 to 1. The mixture was closely packed with sugar crystals of size ranging from 212-250 micrometers, which was then filled in a mold and cured at 100 degrees for one hour. The sugar in the cured polymer was washed out in an ultrasonic bath, forming porous PDMS substrates. The resulting porous PDMS was released from the mold and assembled into multi-well plate for cell culture. Malignant breast cells MCF-7 were seeded in wells having the porous PDMS substrates described in Example 1. 10,000 cells were seeded and cultured in EMEM cell culture medium with 10% Fetal Bovine Serum, 5% pen/strep, and 10 μg/ml of insulin. The medium was changed on alternate days. Following two weeks of culture, the cells were stained with Rhodamine phalloidin (F-actin staining) and DAPI nuclei counter stain and imaged with confocal fluorescence microscope as shown in FIG. 9. […] Differences in cellular morphology often contribute to differences in cellular function. […]
# [3] = test system: breast cancer cells; details: Matrigel 3D culture system; reported; cited from earlier work
smiles,measurement,setting,value
COc1cccc(-c2cc(=O)c3ccccc3o2)c1N [PD98059],noticeable difference for the cells cultured on TCT surface (reversion of malignant phenotype or other change),[1],failed to induce noticeable difference
same,colony size,[2]; FIGS. 12A-C,significantly reduced the colony size
same,reversion of malignant phenotype (mass structure to acini structure),[2]; FIGS. 13A-C,reversed malignant phenotype from mass structure to normal acini structure
same,reversal of malignant behaviors of breast cancer cells,[3],reverse malignant behaviors of breast cancer cells to certain degrees
